Data set [1] concerns mouse embryo fibroblasts (NIH/3T3). Description: MTT assay for cell viability, NIH/3T3. Type of data set: cell-based. The following applies: NIH3T3, 48 h. On the procedure:
(§1) The human cancer cell lines e.g. HepG2 (hepatocellular carcinoma, ATCC® HB-8065™), PC-3 (human prostate cancer cells, ATCC® CRL-1435™), MCF-7 (breast adenocarcinoma, ATCC® […]), and mouse embryo fibroblasts (NIH/3T3, ATCC® CRL-1658™), used in the present study were obtained from the ATCC (American Type Culture Collection, USA and maintained in RPMI 1640 (Roswell Park Memorial Institute, Merck) with 10% FBS (Merck), supplemented with 1% antibiotic and antimycotic solution (Gibco, USA) at 37° C. in a humidified incubator with 5% CO2. All stock solutions of the compounds were prepared in cell culture grade DMSO (dimethyl sulfoxide) and stored at −20° C. Compounds were diluted in culture media prior to use in experiments. Annexin V-FITC apoptosis detection kits were purchased from Calbiochem. MTT dye was procured from Sigma-Aldrich. All the flow cytometry experiments were performed using a FACScan (Becton Dickinson, Mountain View, Calif.) flow cytometer, equipped with a single 488 nm argon laser.
(§2) Cell viability was assessed by MTT assay, which is based on the reduction of MTT by mitochondrial dehydrogenases of viable cells to form a purple formazan product. Briefly, cells (5-6×10^3/well) were plated in 96 well plates. After incubating overnight, the cells were treated with […] different concentrations (100, 50, 20, 10, 5, 2.5, 1.25 μM) in triplicates with the cationic lipidated cordiarimide and intermediates for 48 h. Subsequently, 10 μL of MTT (10 mg/mL) was added to each well and incubated for 3 h. The MTT formazan formed by viable cells was dissolved in 100 μL of DMSO and shaken for 10 min. The absorbance was measured on an ELISA reader. Each test was repeated at least three times. The concentration of the compound which gives the 50% growth inhibition value corresponding to IC50, was calculated using GraphPad prism 5 software. In the present invention we have screened 26 lipidated cordiarimides and the results are described in table 1.
On the technique in general: Tetrazolium assays rely on reduction of a dye to a coloured formazan, in cell work by metabolically active cells.

Data set [2] has as its system HepG2 (hepatocellular carcinoma). Description: MTT assay for cell viability, HepG2. The format is cell-based, human. The settings on record: Homo sapiens, HepG2, 48 h. Here is the method: as §1, §2
The subject of data set [3] is MCF-7 (breast adenocarcinoma). Put plainly: MTT assay for cell viability, MCF-7. The format is cell-based, human. The settings on record: Homo sapiens, MCF7, 48 h. Here is the method:
as §1, §2

Data set [4] relates to PC-3 (human prostate cancer cells). Description: MTT assay for cell viability, PC-3. Type of data set: cell-based. The following applies: Homo sapiens, 48 h. On the procedure:
as §1, §2

In a further data set the target is human ligase I (Homo sapiens, UniProt P18858). Put plainly: Ligation assay, DNA ligase I. The format is biochemical. The following applies: screening, FIG. 4 and FIG. 7. From the text: The ligation assay was done strictly following the assay protocol described in Xi Chen et. al, Cancer Res 2008; 68(9):3169-3177. The DNA molecules 52 mer (5′-3′), 28-mer (5′-3′) and 34-mer (5′-3′) were used to construct a double stranded nicked substrate for the ligase enzyme (FIG. 4). The 34-mer oligo was labelled with 32P-AMP to form a substrate for ligase and to form a ligase-AMP intermediate. During ligation, the ligase would transfer the AMP to the nick forming a phosphodiester bond and seal the nick. The ligated DNA molecule would be larger in size and run higher up on a 7% Urea-containing denaturing acrylamide gel. If an inhibitor is added to the reaction mixture prior to the addition of ligase, this would lead to an inhibition of ligation and a corresponding loss of labelled ligated product in the gel. We would then be able to calculate the percentage of inhibition of ligation by estimating the amount of ligated product in the lane with no inhibitor and comparing it with the lanes containing different inhibitor molecules or with the same inhibitor molecule at different concentrations.

The next data set has as its system caspase-3 in HepG2 cells. Put plainly: Caspase-3 colorimetric activation assay. Type of data set: cell-based, human. The settings on record: HepG2, 5 and 10 μM, 24 h. Here is the method: The activity of caspase-3 was determined using a caspase-3 colorimetric assay kit (Sigma Aldrich) according to the manufacturer's protocol. Briefly, HepG2 cells (1×10^6 cells/well) were treated with 5 and 10 μM of 8i and 8k for 24 h. The cells were harvested and lysed by addition of lysis buffer. Cell lysates were mixed with colorimetric substrate (Ac-DEVD-pNA) and incubated at 37° C. in the dark for 4 h. The absorbance was measured at 405 nm in an ELISA reader. Caspase-3 activity was expressed as the change of the activity compared to the control (FIG. 3).

The subject of data set [5] is HepG2, NH/3T3, PC-3, MCF-7 cell lines. Description: MTT assay, summary over the cell line panel. The format is cell-based. The following applies: across tested cell lines. On the procedure:
as §1, §2

Data set [6] relates to HepG2 cells. Description: Apoptosis, annexin V/PI staining by flow cytometry. The format is cell-based, human. The settings on record: HepG2, 24 h. Here is the method:
Quantitation of apoptotic cells by annexin V staining was carried out according to the manufacturer's instructions. Briefly, cells (5×10^5 cells/well) were seeded in 6 well plates and treated with 5 μM of 8h-8k for 24 h. After incubation, cells were washed with PBS and stained with 1.25 μL of annexin V-FITC and 10 μL of media binding reagent and incubated for 20 min. After that 10 μL of PI was added and samples were analyzed using a flow cytometer. Annexin V-FITC was analyzed using excitation and emission settings of 488 nm and 535 nm (FL-1 channel); PI, 488 nm and 610 nm (FL-2 channel). Debris and clumps were gated out using forward and orthogonal light scatter. Each experiment was repeated two times independently. Results are illustrated in FIG. 1 and the percentage of Annexin-V/PI positive cells increased gradually from 20 to 70% after 24 h of treatment (FIG. 1).

Data set [7] concerns HepG2 cells. Put plainly: Cell cycle analysis, PI staining by flow cytometry. The format is cell-based, human. The settings on record: HepG2, 24 h, 5, 10, and 20 mM as printed. Here is the method: For cell cycle distribution studies after treatment with different molar concentrations of 8i and 8k, HepG2 cells were fixed overnight in 70% ethanol, rehydrated in PBS with ribonuclease A (100 μg/ml) and Triton-X (1%) for 30 min at room temperature then PI (at 50 μg/ml) was added and incubated in the dark for 30 min and analyzed with a flow cytometer. Experiments were repeated two times independently.

For the next data set, the system named is HuCCA-1. The following applies: according to Kittakoop et al.; cited from earlier work.
For the next data set, the system named is MOLT-3. The following applies: according to Kittakoop et al.; cited from earlier work.
For another data set, the system named is HepG2. The following applies: according to Kittakoop et al.; cited from earlier work.
For a further data set, the system named is A549. The following applies: according to Kittakoop et al.; cited from earlier work.

“Also recorded” adds a separate entry of the source. Some results are limits rather than exact numbers.

As a reminder, the IC50 is the midpoint of a concentration-inhibition curve.

Sequence of human ligase I (P18858 whole entry): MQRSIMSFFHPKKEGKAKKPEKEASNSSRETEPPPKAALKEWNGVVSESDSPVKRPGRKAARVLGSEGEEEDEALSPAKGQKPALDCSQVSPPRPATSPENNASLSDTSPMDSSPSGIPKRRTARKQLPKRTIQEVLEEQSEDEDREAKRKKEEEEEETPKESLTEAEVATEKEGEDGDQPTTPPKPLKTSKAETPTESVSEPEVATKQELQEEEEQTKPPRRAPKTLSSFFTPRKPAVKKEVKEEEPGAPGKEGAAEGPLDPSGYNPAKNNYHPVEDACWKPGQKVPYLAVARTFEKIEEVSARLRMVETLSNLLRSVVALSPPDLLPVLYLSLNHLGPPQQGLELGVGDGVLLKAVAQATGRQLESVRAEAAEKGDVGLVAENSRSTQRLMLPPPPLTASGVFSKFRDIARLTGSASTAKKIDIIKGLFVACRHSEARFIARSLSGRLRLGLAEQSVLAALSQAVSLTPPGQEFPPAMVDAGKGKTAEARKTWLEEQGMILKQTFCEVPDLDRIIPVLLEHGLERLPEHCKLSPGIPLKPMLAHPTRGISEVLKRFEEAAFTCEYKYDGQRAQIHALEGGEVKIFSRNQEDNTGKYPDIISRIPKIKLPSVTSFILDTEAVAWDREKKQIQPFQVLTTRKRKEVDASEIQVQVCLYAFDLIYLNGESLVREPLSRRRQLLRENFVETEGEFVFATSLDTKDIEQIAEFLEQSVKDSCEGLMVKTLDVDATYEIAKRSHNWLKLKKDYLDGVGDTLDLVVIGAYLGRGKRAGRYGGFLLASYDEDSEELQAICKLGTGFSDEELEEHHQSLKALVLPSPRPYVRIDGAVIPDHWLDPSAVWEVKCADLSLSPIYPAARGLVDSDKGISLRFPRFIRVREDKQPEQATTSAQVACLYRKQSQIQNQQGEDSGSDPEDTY

For the compound `CCCCCCCCCCCCCC[N+](C)(CCCCCCCCCCCCCC)CC(=O)NC1CCC(=O)N(CC(=O)c2ccccc2)C1=O` (stereo not shown) [Compound 8m, {[2,6-Dioxo-1-(2-oxo-2-phenyl-ethyl)-piperidin-3-ylcarbamoyl]-methyl}Methyl-ditetradecyl-ammonium iodide], the IC50 in data set [1], in data set [2], in [3] and in data set [4] was > 20 µM each time. In addition, the “DNA ligase I / ligation inhibition (in words)” value at human ligase I is “did not elicit any DNA ligase I inhibition”.

For the compound `CCCCCCCCCCCCC[N+](C)(CCCCCCCCCCCCC)CC(=O)NC1CCC(=O)N(CC(=O)c2ccccc2)C1=O` (stereo not shown) [Compound 8l, {[2,6-Dioxo-1-(2-oxo-2-phenyl-ethyl)-piperidin-3-ylcarbamoyl]-methyl}-Methyl-ditridecyl-ammonium iodide], the IC50 in [1], in data set [2], in data set [3] and in data set [4] was > 20 µM in each case. Further, the “DNA ligase I / ligation inhibition (in words)” value on human ligase I is “did not elicit any DNA ligase I inhibition”.

For `CCCCCCCCCC[N+](C)(CCCCCCCCCC)CC(=O)NC1CCC(=O)N(CC(=O)c2ccccc2)C1=O` (stereo not shown) [Compound 8i, Bis-decyl-{[2,6-dioxo-1-(2-oxo-2-phenyl-ethyl)-piperidin-3-ylcarbamoyl]-methyl}-methyl-ammonium iodide], the caspase-3 activation entry with caspase-3 in HepG2 cells is on record as “activated the caspase-3 in HepG2 cells dose dependently; also recorded: activated the casepase-3 in HepG2 cells dose dependently”. Besides, the half-inhibitory concentration (IC50) in data set [1] was determined as 2.13 µM; in [2], 3.07 µM; in data set [3], 5.21 µM; in data set [4], 4.23 µM. Also, the “antiproliferative / anticancer activity (in words)” value in data set [5] is given as “very good anticancer activity without selectivity”. Further, the “apoptosis induction (in words)” value with HepG2 cells [6] was “induced significant amount of apoptosis”. Further, the “effect on cell cycle progression” value in the data set with HepG2 cells [7] is on record as “did not altered cell cycle progression; also recorded: did not show any impact on cell cycle progression”.

With `CCCCCCCC[N+](C)(CCCCCCCC)CC(=O)NC1CCC(=O)N(CC(=O)c2ccccc2)C1=O` (stereo not shown) [Compound 8g, {[2,6-Dioxo-1-(2-oxo-2-phenyl-ethyl)-piperidin-3-ylcarbamoyl]-methyl}-Methyl-dioctyl-ammonium iodide], the IC50 in data set [1] is 5.48 µM; in data set [2], 3.43 µM; in data set [3] it was 6.37 µM; in [4], > 20 µM. The “antiproliferative / anticancer activity (in words)” value in [5] is on record as “very good anticancer activity without selectivity”.

Consider `CC(=O)NC1CCC(=O)N(CC(=O)c2ccccc2)C1=O` (stereo not shown) [Cordiarimide A], for which the “cytotoxicity toward HuCCA-1” value with HuCCA-1 is “inactive”. In the data set with MOLT-3, the IC50 was 145 µM. In the data set on HepG2, the “cytotoxicity toward HepG2” value was “inactive”. Further, in the data set with A549, the “cytotoxicity toward A549” value is “inactive”. In addition, the “DNA ligase I / ligation inhibition (in words)” value on human ligase I was “did not show any ligation inhibition”.

(Values after patent US10266564B2, “Cationic lipid cordiarimide hybrid compounds and a process for preparation thereof” (COUNCIL OF SCIENTIFIC & INDUSTRIAL RESEARCH, priority 2014, dated 2019).)
